Experimental findings from ChEMBL document CHEMBL4190336, “Discovery of a Novel Series of 7-Azaindole Scaffold Derivatives as PI3K Inhibitors with Potent Activity” (ACS Med Chem Lett, 2017) are described below.

For assay [1], the target named is PI3-kinase p110-alpha/p85-alpha (Homo sapiens, UniProt P42336). Kind of assay: Inhibition of recombinant full length N-terminal His-tagged human PI3K p110alpha/p85alpha expressed in baculovirus expression system using PIP2/PS as substrate after 1 hr by ADP-Glo luminescence assay. (In general: In ADP-Glo the light output rises with the ADP produced.)
Sequence of PI3-kinase p110-alpha/p85-alpha (P27986 whole entry, canonical isoform): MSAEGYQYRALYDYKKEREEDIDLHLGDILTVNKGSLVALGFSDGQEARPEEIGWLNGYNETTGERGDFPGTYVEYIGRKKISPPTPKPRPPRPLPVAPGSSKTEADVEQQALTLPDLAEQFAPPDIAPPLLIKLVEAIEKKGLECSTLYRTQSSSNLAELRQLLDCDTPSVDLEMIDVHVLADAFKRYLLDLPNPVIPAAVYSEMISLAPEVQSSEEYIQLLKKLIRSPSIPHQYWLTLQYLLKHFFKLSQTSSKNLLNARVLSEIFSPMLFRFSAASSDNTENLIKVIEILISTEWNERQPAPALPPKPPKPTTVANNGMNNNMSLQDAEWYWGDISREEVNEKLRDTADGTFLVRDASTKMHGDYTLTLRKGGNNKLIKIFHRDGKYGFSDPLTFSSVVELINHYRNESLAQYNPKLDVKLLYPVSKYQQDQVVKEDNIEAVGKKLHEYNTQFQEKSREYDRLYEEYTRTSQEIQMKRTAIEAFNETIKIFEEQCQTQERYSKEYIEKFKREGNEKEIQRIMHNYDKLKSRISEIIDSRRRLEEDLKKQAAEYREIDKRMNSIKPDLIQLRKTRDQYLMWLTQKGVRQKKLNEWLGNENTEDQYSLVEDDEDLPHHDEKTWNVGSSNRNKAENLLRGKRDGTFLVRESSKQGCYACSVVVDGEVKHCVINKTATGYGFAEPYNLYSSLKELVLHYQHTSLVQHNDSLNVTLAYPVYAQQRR
Sequence of PI3-kinase p110-alpha/p85-alpha (P42336 whole entry, canonical isoform): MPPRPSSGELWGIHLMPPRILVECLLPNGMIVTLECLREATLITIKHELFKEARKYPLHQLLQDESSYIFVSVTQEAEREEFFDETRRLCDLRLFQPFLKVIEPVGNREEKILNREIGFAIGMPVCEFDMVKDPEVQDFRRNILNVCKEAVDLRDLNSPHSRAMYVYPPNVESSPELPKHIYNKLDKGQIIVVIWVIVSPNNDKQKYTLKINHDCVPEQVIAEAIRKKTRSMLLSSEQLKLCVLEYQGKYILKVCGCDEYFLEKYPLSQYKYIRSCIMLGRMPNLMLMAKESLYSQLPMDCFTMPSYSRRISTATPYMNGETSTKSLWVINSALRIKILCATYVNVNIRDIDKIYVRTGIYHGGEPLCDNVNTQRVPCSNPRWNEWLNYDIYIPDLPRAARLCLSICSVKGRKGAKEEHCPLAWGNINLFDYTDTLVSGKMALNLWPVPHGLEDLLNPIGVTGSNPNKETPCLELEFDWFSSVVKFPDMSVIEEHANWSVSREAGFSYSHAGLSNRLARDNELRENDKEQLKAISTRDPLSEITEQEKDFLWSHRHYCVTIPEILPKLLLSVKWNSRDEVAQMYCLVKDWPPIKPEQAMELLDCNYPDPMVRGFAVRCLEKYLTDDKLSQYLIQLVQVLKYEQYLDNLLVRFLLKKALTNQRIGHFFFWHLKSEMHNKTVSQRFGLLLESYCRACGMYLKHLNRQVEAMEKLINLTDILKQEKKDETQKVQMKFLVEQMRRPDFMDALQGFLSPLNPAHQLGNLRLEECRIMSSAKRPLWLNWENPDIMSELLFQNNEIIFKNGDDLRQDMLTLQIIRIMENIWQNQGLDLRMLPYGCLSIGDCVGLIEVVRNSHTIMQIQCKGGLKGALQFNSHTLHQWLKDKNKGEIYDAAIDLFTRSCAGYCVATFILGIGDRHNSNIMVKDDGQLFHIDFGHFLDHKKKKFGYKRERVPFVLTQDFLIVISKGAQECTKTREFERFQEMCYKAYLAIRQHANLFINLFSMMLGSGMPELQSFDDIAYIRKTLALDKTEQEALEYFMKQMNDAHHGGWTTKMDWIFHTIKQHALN
Assay [2] concerns the target Phosphatidylinositol 4,5-bisphosphate 3-kinase catalytic subunit beta isoform (Homo sapiens, UniProt P42338). Kind of assay: Inhibition of recombinant human PI3K p110beta using PIP2/PS as substrate after 1 hr by ADP-Glo luminescence assay.
Assay [3] concerns MCF7. Kind of assay: Growth inhibition of human MCF7 cells after 72 hrs by SRB assay. Format: functional. As to conditions: MCF7, 72 h. On the technique in general: In SRB staining, fixed cells bind dye roughly in proportion to their protein.
In assay [4] the test system is U-87 MG. Kind of assay: Growth inhibition of human U87MG cells after 72 hrs by SRB assay. The assay is classed as functional, U-87MG ATCC.
Assay [5] relates to T47D. Description: Growth inhibition of human T47D cells after 72 hrs by SRB assay. Format: functional.
Assay [6] deals with KARPAS-422. Description: Growth inhibition of human KARPAS422 cells by CCK8 assay. The assay is classed as functional. (In general: Tetrazolium dyes change colour on reduction, which living cells bring about.)
Assay [7] deals with NCI-H460. Kind of assay: Growth inhibition of human NCI-H460 cells after 72 hrs by SRB assay. Format: functional. The settings on record: NCI-H460, 72 h.
Assay [8] concerns Pfeiffer. Description: Growth inhibition of human Pfeiffer cells by CCK8 assay. The assay is classed as functional.
The target in assay [9] is PI3-kinase p110-delta/p85-alpha (Homo sapiens, UniProt O00329). Description: Inhibition of recombinant human full length His-tagged PI3K p110delta/p85alpha expressed in baculovirus expression system using PIP2/PS as substrate after 1 hr by ADP-Glo luminescence assay.
Sequence of PI3-kinase p110-delta/p85-alpha (P27986 whole entry, canonical isoform): as the sequence (P27986 whole entry, canonical isoform) above
Sequence of PI3-kinase p110-delta/p85-alpha (O00329 whole entry, canonical isoform): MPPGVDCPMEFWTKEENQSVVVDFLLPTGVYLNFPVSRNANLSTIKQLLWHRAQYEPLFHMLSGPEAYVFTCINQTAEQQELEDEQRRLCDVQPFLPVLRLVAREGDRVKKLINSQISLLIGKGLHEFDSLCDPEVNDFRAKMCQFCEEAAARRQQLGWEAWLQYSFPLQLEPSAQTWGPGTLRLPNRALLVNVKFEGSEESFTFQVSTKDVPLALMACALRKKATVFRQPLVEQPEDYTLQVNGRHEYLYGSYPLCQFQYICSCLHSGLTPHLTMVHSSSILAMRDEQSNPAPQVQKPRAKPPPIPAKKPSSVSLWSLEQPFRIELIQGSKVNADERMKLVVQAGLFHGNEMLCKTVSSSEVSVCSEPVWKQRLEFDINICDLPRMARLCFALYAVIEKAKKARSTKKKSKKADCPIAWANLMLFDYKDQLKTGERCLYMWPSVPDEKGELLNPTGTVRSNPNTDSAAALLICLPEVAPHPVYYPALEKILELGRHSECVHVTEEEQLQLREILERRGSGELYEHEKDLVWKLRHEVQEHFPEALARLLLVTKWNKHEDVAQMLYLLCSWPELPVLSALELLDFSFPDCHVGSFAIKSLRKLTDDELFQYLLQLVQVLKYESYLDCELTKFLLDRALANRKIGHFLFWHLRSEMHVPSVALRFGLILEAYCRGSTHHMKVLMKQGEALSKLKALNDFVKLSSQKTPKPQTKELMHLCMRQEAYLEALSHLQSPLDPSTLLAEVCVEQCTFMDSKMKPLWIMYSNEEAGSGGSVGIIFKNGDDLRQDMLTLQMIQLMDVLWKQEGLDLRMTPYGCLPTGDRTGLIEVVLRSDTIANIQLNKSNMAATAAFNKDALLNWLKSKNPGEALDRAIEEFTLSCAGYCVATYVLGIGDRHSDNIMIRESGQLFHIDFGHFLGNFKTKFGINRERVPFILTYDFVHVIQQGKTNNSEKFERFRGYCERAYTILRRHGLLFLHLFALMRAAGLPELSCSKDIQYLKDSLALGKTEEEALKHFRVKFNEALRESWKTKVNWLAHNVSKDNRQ
The target of assay [10] is Phosphatidylinositol 4,5-bisphosphate 3-kinase catalytic subunit gamma isoform (Homo sapiens, UniProt P48736).
Sequence of Phosphatidylinositol 4,5-bisphosphate 3-kinase catalytic subunit gamma isoform (P48736 whole entry, canonical isoform): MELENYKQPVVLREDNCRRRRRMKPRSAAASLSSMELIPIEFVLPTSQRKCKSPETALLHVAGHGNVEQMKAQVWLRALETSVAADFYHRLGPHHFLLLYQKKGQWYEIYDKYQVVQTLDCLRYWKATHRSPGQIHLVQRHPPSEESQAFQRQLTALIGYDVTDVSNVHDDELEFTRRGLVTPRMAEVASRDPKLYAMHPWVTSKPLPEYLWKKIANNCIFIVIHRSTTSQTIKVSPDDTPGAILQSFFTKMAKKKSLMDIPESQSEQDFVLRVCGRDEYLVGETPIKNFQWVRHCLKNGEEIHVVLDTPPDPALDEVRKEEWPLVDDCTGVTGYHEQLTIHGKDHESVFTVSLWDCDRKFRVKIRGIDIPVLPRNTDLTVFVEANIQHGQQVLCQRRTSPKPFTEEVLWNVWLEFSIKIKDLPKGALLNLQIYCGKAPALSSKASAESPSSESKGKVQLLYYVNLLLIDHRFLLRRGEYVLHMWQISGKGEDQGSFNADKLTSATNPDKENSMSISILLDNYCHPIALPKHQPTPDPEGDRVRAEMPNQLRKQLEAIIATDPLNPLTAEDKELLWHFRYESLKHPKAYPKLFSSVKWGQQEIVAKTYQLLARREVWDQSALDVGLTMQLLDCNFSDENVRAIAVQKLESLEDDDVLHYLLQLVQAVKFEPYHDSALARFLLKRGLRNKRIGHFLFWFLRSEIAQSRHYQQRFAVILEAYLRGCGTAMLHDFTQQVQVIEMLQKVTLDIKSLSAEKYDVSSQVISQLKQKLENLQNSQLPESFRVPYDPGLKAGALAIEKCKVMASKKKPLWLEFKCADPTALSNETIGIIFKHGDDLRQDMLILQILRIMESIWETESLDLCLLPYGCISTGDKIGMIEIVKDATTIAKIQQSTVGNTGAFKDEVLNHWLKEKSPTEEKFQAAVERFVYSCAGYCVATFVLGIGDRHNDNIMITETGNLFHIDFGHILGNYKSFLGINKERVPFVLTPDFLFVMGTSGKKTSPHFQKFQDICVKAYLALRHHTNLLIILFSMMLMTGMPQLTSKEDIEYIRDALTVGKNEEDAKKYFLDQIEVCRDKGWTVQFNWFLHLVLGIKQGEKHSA
Description: Inhibition of recombinant full length His-tagged human PI3K p110gamma expressed in baculovirus expression system using PIP2/PS as substrate after 1 hr by ADP-Glo luminescence assay

Sequence of Phosphatidylinositol 4,5-bisphosphate 3-kinase catalytic subunit beta isoform (P42338 whole entry, canonical isoform): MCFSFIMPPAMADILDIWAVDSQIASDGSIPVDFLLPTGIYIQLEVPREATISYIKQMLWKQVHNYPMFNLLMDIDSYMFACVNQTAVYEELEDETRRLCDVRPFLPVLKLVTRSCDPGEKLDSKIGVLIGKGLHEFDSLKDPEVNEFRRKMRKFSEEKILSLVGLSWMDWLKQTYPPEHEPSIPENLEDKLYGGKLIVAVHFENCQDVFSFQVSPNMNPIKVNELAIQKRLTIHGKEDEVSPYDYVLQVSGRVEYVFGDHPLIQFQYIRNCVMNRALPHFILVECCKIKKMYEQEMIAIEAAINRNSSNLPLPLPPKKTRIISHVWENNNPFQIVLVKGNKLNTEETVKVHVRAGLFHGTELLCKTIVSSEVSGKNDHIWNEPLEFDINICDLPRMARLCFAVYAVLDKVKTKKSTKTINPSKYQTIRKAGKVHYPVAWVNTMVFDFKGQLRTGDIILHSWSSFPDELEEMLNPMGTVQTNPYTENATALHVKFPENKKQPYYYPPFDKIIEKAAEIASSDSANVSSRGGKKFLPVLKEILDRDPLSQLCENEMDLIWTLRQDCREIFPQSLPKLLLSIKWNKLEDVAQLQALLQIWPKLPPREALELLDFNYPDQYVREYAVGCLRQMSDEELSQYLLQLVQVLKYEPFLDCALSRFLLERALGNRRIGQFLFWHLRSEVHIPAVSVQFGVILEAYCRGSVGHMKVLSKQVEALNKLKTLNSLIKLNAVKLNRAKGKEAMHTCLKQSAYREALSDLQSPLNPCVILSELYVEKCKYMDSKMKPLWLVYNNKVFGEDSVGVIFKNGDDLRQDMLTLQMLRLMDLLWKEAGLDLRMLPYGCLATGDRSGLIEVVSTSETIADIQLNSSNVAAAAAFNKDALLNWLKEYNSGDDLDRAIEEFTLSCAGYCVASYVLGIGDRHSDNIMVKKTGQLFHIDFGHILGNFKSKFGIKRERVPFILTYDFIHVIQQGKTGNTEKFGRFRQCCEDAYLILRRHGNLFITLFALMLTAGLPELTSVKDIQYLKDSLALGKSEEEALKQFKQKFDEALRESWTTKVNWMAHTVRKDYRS

As usually defined, the IC50 is the concentration that gives 50% inhibition. What is called GI50 is the concentration at which growth is held to half of that of the control. Low readings indicate more potent growth inhibition, high ones less potent growth inhibition. Turning to `O=S(=O)(Nc1cc(-c2cnc3[nH]cc(-c4ccccc4)c3c2)cnc1Cl)c1ccccc1`, the IC50 stood at 2 nM in [1], 39 nM in [2], 1 nM in assay [9] and 15 nM in [10]. Also, the 50% growth inhibitory concentration (GI50) in assay [3] was over 10000 nM; in [4], over 10 µM; in assay [5] it was 7720 nM; in assay [6], 1830 nM; in assay [7], over 10 µM; in assay [8], 1520 nM.

As for `O=S(=O)(Nc1cc(-c2cnc3[nH]c(-c4ccccc4)cc3c2)cnc1Cl)c1ccccc1`, 268 nM corresponded to half-maximal inhibition in assay [10] (IC50).

Take `Nc1ccc(-c2cnc(N)c(NS(=O)(=O)c3ccccc3)c2)cn1`: the half-inhibitory concentration (IC50) in assay [10] was 2970 nM.

`O=S(=O)(Nc1cc(-c2cnc3[nH]nc(-c4ccncc4)c3c2)cnc1Cl)c1ccccc1`: the IC50 is 1 nM in assay [1], 4 nM in assay [2], 0.7 nM in assay [9] and 7 nM in [10]. Also, the GI50 in assay [3] worked out at 690 nM; in [4], 3.12 µM; in [5], 520 nM; in assay [6] it was 170 nM; in [7], 2.5 µM; in assay [8] it was 150 nM.

In assay [10], `CCc1cc2cc(-c3cnc(Cl)c(NS(=O)(=O)c4ccccc4)c3)cnc2[nH]1` displayed a concentration for half-maximal inhibition (IC50) of 155 nM.

`COc1ncc(-c2ccc(N)nc2)cc1NS(=O)(=O)c1ccccc1` yielded an IC50 in [10] of 2060 nM.

In turn, `CCNc1ccc(-c2cnc(Cl)c(NS(=O)(=O)c3ccccc3)c2)cn1` displayed a half-maximal inhibitory concentration (IC50) in assay [10] of 1490 nM.

`Nc1ccc(-c2cnc(Cl)c(NS(=O)(=O)c3ccccc3)c2)cn1` displayed a half-inhibitory concentration (IC50) in assay [10] of 375 nM.

With `Cn1c(=O)n(-c2ccc(C(C)(C)C#N)cc2)c2c3cc(-c4cnc5ccccc5c4)ccc3ncc21` [DACTOLISIB], the GI50 in assay [3] was determined as 60 nM; in assay [4], 0.28 µM; in assay [5] it was 300 nM; in assay [7], 0.61 µM.

As to `CS(=O)(=O)Nc1ccc(-c2cnc(Cl)c(NS(=O)(=O)c3ccccc3)c2)cn1`, in assay [10], the IC50 is 4750 nM.

As to `Cc1cc2cc(-c3cnc(Cl)c(NS(=O)(=O)c4ccccc4)c3)cnc2[nH]1`, the concentration for half-maximal inhibition (IC50) in [10] is 63 nM.

For `O=S(=O)(Nc1cc(-c2cnc3[nH]ccc3c2)cnc1Cl)c1ccccc1`, the IC50 in [1] turned out to be 35 nM; in assay [2] it was 35 nM; in assay [9], 1 nM; in [10], 97 nM. For the same molecule, the concentration for 50% growth inhibition (GI50) in assay [3] is over 10000 nM; in assay [4], over 10 µM; in assay [5], over 10000 nM; in assay [6], 6710 nM; in assay [7], over 10 µM; in assay [8], 5500 nM.

Take `O=S(=O)(Nc1cc(-c2cnc3[nH]cc(-c4ccncc4)c3c2)cnc1Cl)c1ccccc1`: the IC50 stood at 1 nM in assay [1], 2 nM in assay [2], 0.6 nM in assay [9] and 0.5 nM in assay [10]. Moreover, the GI50 in [3] came out at 2140 nM; in assay [4] it was 8.95 µM; in assay [5], 1500 nM; in [6] it was 120 nM; in assay [7], 3.9 µM; in [8] it was 100 nM.

In the case of `Nc1ccc(-c2cncc(NS(=O)(=O)c3ccccc3)c2)cn1`, the concentration for half-maximal inhibition (IC50) in [10] is 1590 nM.

As for `CC(=O)Nc1ccc(-c2cnc(Cl)c(NS(=O)(=O)c3ccccc3)c2)cn1`, the IC50 in assay [10] was 420 nM.

Take `O=S(=O)(Nc1cc(-c2cnc3[nH]cc(-c4ccncc4)c3c2)cnc1Cl)c1ccc(F)cc1`: the IC50 in assay [1] came out at 1 nM; in [2], 2 nM; in assay [9], 0.4 nM; in assay [10], 0.7 nM. Besides, the GI50 in assay [3] was 2910 nM; in [4], over 10 µM; in assay [5], 1300 nM; in [6] it was 370 nM; in [7], 6.19 µM; in assay [8], 410 nM.

On to `CC[C@H](Nc1ncnc2[nH]cnc12)c1nc2cccc(F)c2c(=O)n1-c1ccccc1` [IDELALISIB], for which the figures for the GI50 in assay [6] and in [8] were 680 nM and 740 nM, respectively.

Take `CN(C)C(=O)Nc1ccc(-c2cnc(Cl)c(NS(=O)(=O)c3ccccc3)c2)cn1`: in assay [10], the midpoint of inhibition, the IC50, lay at 68 nM.

Consider `O=S(=O)(Nc1cc(-c2cnc3[nH]ncc3c2)cnc1Cl)c1ccccc1`, for which the concentration for half-maximal inhibition (IC50) in [1] amounted to 51 nM; in [2], 29 nM; in assay [9] it was 1 nM; in assay [10], 37 nM. Further, the 50% growth inhibitory concentration (GI50) in assay [3] worked out at 7400 nM; in assay [4], 8.94 µM; in assay [5] it was 4400 nM; in assay [6] it was 1090 nM; in assay [7], 7.61 µM; in [8], 1160 nM.

For the molecule `O=S(=O)(Nc1cc(-c2cnc3[nH]cc(-c4ccncc4)c3c2)cnc1Cl)c1ccccc1F`, the IC50 in assay [1] was 1 nM; in [2], 3 nM; in assay [9], 0.5 nM; in assay [10], 0.7 nM. Besides, the GI50 was 2500 nM in assay [3]; 7.13 µM in assay [4]; 1790 nM in [5]; 350 nM in assay [6]; over 10 µM in assay [7]; 290 nM in [8].

In assay [10], `O=C(Nc1ccc(-c2cnc(Cl)c(NS(=O)(=O)c3ccccc3)c2)cn1)C1CC1` had a half-maximal inhibitory concentration (IC50) of 445 nM.

In assay [10], `Cc1ncc(-c2ccc(N)nc2)cc1NS(=O)(=O)c1ccccc1` displayed an IC50 of 381 nM.

For `O=S(=O)(Nc1cc(-c2cnc3[nH]nc(-c4ccccc4)c3c2)cnc1Cl)c1ccccc1`, the half-inhibitory concentration (IC50) in assay [1] was 2 nM; in [2], 6 nM; in assay [9] it was 1 nM; in assay [10], 17 nM. Also, the 50% growth inhibitory concentration (GI50) in assay [3] is 7370 nM; in assay [4], over 10 µM; in assay [5], 4190 nM; in assay [6], 1230 nM; in [7] it was 8.65 µM; in assay [8], 1300 nM.
